Measured values reported in patent US5132313A, “Non-competitive NMDA receptor antagonists and methods for their use” (priority 1989, dated 1992).

Molecular target: PCP binding sites of the NMDA receptor complex
Design: species or system rat
Details: for IC50: displacing (+)-[3H]MK-801 bound to rat brain homogenates, 0.5-1 nM radioligand, 100 μM glutamate, 30 μM glycine, 2 h room temperature, pH 7.4, mean of three experiments in duplicate ±SEM; for binding potency compared with corresponding S enantiomer: R enantiomers 1, 3, 5, 7 versus 2, 4, 6, 8; for Relative Potency (%): relative to PCP = 100%, displacing (+)-[3H]MK-801

N[C@]12CC=CC[C@H]1Cc1ccccc12 [Compound 1]
IC50: 114 ± 14 nM
binding potency compared with corresponding S enantiomer (in words): more potent in binding than the corresponding enantiomers of S stereochemistry
Relative Potency (%): 31%

N[C@@]12CC=CC[C@@H]1Cc1ccccc12 [Compound 2]
IC50: 2240 ± 135 nM
Relative Potency (%): 2%

N[C@]12CCCC[C@H]1Cc1ccccc12 [Compound 3]
binding difference between enantiomeric pair of compounds 3 and 4 (compound 3 (R) versus compound 4 (S)): 73 fold
IC50: 19 ± 1 nM
binding potency compared with PCP (in words): more potent in binding than PCP
binding potency compared with corresponding S enantiomer (in words): more potent in binding than the corresponding enantiomers of S stereochemistry
Relative Potency (%): 184%

N[C@@]12CCCC[C@@H]1Cc1ccccc12 [Compound 4]
IC50: 1390 ± 49 nM
Relative Potency (%): 3%

CCN[C@]12CCCC[C@H]1Cc1ccccc12 [Compound 7]
IC50: 68 ± 7 nM
binding potency compared with corresponding S enantiomer (in words): more potent in binding than the corresponding enantiomers of S stereochemistry
Relative Potency (%): 51%

CCN[C@@]12CCCC[C@@H]1Cc1ccccc12 [Compound 8]
IC50: 546 ± 40 nM
Relative Potency (%): 6%

c1ccc(C2(N3CCCCC3)CCCCC2)cc1 [PCP, phencyclidine, reference compound]
IC50: 35 ± 1 nM
Relative Potency (%): 100%

c1csc(C2(N3CCCCC3)CCCCC2)c1 [TCP, 1-[1-(2-thienyl)-cyclohexyl]-piperidine, reference compound]
IC50: 11 ± 1 nM
Relative Potency (%): 318%
